# Reference: patent US20250281465A1, “MOLECULES THAT ENHANCE EXTRACELLULAR VESICLE RELEASE” (priority 2022, published 2025)
# Legend:
# Type in all cases: cell-based, mouse
# mBMDCs [1] = assay: RNA sequencing analysis of mBMDCs; conditions: 5 μM
# Experimental: FIGS. 2A-2C. RNA sequencing analysis of mBMDC treated with compound #634, (A) mBMDCs were treated with compound #634 (5 μM) or Veh (0.1% DMSO) or in triplicate for 5 hours. RNA was isolated, and RNA-seq analysis was performed by UC San Diego IGM Genomic Center. Data were analyzed by UC San Diego Moore Cancer Center Biostatistics and Bioinformatics Shared Resources. […] (B) Kyoto Encyclopedia of Genes and Genomes (KEGG) pathway analysis. Normalized enrichment scores (NES) of the top 10 positively and negatively enriched genes sets (FDR≤0.05 and fold change >2).
# mBMDCs were treated with compound 634 (5 μM) or Veh (0.1% DMSO) in triplicate for 5 hours. RNA was isolated, and RNA-seq analysis was performed. […] Data were analyzed by UC San Diego Moore Cancer Center Biostatistics and Bioinformatics Shared Resources.
# RNA-seq and Data Analysis. mBMDCs (1.5×10^6 cells, 10^6 cells/mL×1.5 mL) were treated with Veh (0.1% DMSO), 634 (5 μM) for 5 hours, and then the total RNA was isolated using Quick-RNA™ Miniprep Kit (Zymo Research). Each group has triplicates. RNA-seq was performed by the sequencing core at the UC San Diego institute for Genomic Medicine Genomics Center. Briefly, paired-ended sequencing was performed on the Illumina NovaSeq 6000. Reads were aligned to the mouse reference genome (mm10) using STAR (ver. 2.5.1), and mRNA expression levels were calculated per gene using RSEM (ver. 1.3.0). Genes were filtered if more than 24 out of 27 of the samples (including compound 634, there were a total of 8 testing compounds and DMSO in triplicated samples) had counts <10. Raw counts were then quantile normalized and used as expression values in the subsequent analysis. Also, if mouse gene IDs corresponded with multiple human genes, the genes with highest variance in expression values were kept (Miller et al., 2011). A total of 11759 genes remained. Limma (liner models for microarray, using Rlimma package) trend tests were used for differential analysis based on log 2 expression values. The Benjamini-Hochberg procedure was applied to control the false discovery rate (FDR). […] RNA-seq data have been deposited in ArrayExpress, https://www.ebi.ac.uk/arrayexpress/(accession no. E-MTAB-12377) (Hayashi, 2022).
# mBMDCs [2] = assay: Cell viability / cytotoxicity in mBMDCs (MTT); conditions: 10 μM
# Experimental: FIGS. 30A-30B. […] After 48 hours incubation, cell viability was determined by MTT assay.
# mBMDCs (10^5 cells/200 μL/well) were treated with 10 and 5 μM of a test compound in 96-well plates overnight. After 18 hours of drug treatment, MTT (0.5 mg/ml) was added to each well. The cells were lysed after 6-8 hours incubation, and absorbance values at 570 and 650 nm were measured. PrestoBlue reagent (#A13261, Thermo Fisher Scientific) was used for cell viability assay in CD63 HTS as described earlier.
# Cell viability assay. mBMDCs (2×10^6 cells/200 μL/well in RPMI1640 supplemented with dialyzed 10% FBS, or 1.5×10^6 cells/200 μL/well in RPMI1640 supplemented with 10% exosome depleted FBS) were treated with 10 μM of each test compound in 96-well plates. After 46-48 hours of compound treatment, MTT (0.5 mg/mL) was added to each well. The cells were lysed after overnight incubation, and absorbance values at 570 and 650 nm were measured.
# mBMDCs [3] = assay: Costimulatory molecule expression on mBMDCs (flow cytometry); conditions: 634 10 μM, ION 1 μM, MPLA 1 μg/mL overnight, vs Veh
# Experimental: FIGS. 26A-26D. Flow cytometric analysis for costimulatory molecules on mBMDCs. For costimulatory molecules on mBMDCs, mBMDCs (10^6 cells/mL) were incubated with 634 (10 μM), ION (1 μM), and MPLA (1 μg/mL) for 20-24 hours. 0.5% DMSO was used as a vehicle. After removing the supernatant, cells were washed with the stain buffer and incubated with anti-mouse CD16/32 antibody for blocking FcR. Cells were stained with an antibody cocktail with anti-CD86 (A), anti-CD80 (B), anti-MHC class II (C), and anti-CD40 (D) antibodies for 30 minutes at 4° C. Cells were then washed and stained with DAPI (4′,6-diamino-2phenylindole) for 10 minutes at room temperature to exclude dead cells (DAPI^high) from the analysis. Data were acquired using MACSQuant Analyzer 10 (Miltenyi Biotec, Germany) and analyzed with FlowJo (version 10.8.1).
# mBMDCs (10^5 cells/200 μL/well) were treated with a test compound (10 μM) or Veh (0.5% DMSO) overnight and then the costimulatory molecule expression on mBMDCs was evaluated using flow cytometry. The cells were stained with antibodies for CD11c, CD80, CD83, CD86, CD40, and MHC class II. Dead cells (DAPI high) were excluded from the analysis. Percent positive population of CD80, CD83, CD86, CD40, or MHC class II in the gated CD11c population were analyzed.
# Costimulatory Molecule Expression Analysis. mBMDCs (10^6 cells/mL) were incubated with 10 μM compound, 1 μM lonomycin and 1 μg/mL MPLA for 20 to 24 hours. 0.5% DMSO was used as vehicle. Cells were incubated with anti-mouse CD16/32 antibody for blocking FcR and stained with anti-CD11c, anti-CD40, […], anti-CD83, […], or anti-MHC class II antibodies for 30 minutes at 4° C. Cells were stained with 4′,6-diamino-2-phenylindole (DAPI) for 10 minutes at RT. Data were acquired using MACSQuant Analyzer 10 (Miltenyi Biotec, Germany) and analyzed with FlowJo (version 10.8.1, Becton Dickinson, Ashland, OR)).
# [4] = 5 hours, FDR≤0.05 and fold change >2
smiles,measurement,setting,value
"CCOC(=O)c1c(NS(=O)(=O)c2cccc3nsnc23)sc(C)c1C [compound 634, Ethyl 2-(benzo[c][1,2,5]thiadiazole-4-sulfonamido)-4,5-dimethylthiophene-3-carboxylate]",FC Cdhr1,"mBMDCs [1]; 5 hours vs Veh, down-regulated",0.40
same,FC Hrh1,"mBMDCs [1]; 5 hours vs Veh, down-regulated",0.46
same,FC Cdh1,"mBMDCs [1]; 5 hours vs Veh, up-regulated",2.61
same,FC Htr7,"mBMDCs [1]; 5 hours vs Veh, up-regulated",2.38
same,FC Oit3,"mBMDCs [1]; 5 hours vs Veh, up-regulated",2.02
same,FC Ppm1e,"mBMDCs [1]; 5 hours vs Veh, up-regulated",2.77
same,FC Sla2,"mBMDCs [1]; 5 hours vs Veh, up-regulated",2.04
same,down-regulated genes,mBMDCs [1]; [4],17 genes
same,genes with modulated expression compared to Veh,mBMDCs [1]; [4],103 genes
same,up-regulated genes,mBMDCs [1]; [4],86 genes
same,toxicity to mBMDC,mBMDCs [2],non-toxic
same,CD80 expression on mBMDCs,mBMDCs [3],increased CD86 and CD80 expression on mBMDCs
same,CD86 expression on mBMDCs,mBMDCs [3],increased CD86 and CD80 expression on mBMDCs
